Experimental data published in publication PMC9841576, “Characterisation of C101248: A novel selective THIK-1 channel inhibitor for the modulation of microglial NLRP3-inflammasome” (Neuropharmacology, 2023).
Read-outs that look alike come from different tables or passages of the source.

Legend:
[1] = target: T1, mouse THIK-1 (Mus musculus, UniProt Q8R1P5); experiment: FLIPR thallium influx assay, HEK-mTHIK-1 cells; type: cell-based
T1 construct: expressed in transfected cells
T1 sequence (Q8R1P5 1-405): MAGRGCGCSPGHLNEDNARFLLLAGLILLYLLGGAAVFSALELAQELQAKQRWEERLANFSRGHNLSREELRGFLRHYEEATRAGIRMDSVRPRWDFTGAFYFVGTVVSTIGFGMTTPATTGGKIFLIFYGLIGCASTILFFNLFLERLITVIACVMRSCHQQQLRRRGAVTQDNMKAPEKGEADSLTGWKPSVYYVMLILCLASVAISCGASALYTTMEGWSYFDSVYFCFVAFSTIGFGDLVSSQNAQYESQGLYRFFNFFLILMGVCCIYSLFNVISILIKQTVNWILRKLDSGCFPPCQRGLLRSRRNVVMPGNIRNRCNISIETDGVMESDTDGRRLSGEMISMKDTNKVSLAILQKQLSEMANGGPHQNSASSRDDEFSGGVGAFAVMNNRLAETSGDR
Protocol: HEK-293 cells were transfected with human THIK-1, TREK-1, TWIK-2, or mouse THIK-1 cDNA cloned into pcDNA3.1, using either Fugene HD transfection reagent (Promega) or electroporation (MaxCyte STX instrument). Cells stably expressing the relevant genes were selected based on resistance to 500 μg/ml geneticin (Gibco). For human THIK-1 and TWIK-2 expressing cells, monoclonal lines were isolated by limited dilution cloning; mouse THIK-1 and human TREK-1 expressing cells were maintained as polyclonal pools. The HEK-293 pools and monoclones stably expressing the relevant genes were maintained in DMEM (Life Technologies), supplemented with 10% FCIII (HyClone, Fetal clone III) and 500 μg/ml geneticin. A CHO-Kv2.1 cell line was purchased from Millipore (accession NM_004975) and maintained in F12 (Life Technologies), supplemented with 10% FCSIII (Thermo Scientific) and 500 μg/ml geneticin (Life Technologies). For thallium flux assays, banks of frozen cell aliquots were prepared the day prior to assay, cells were thawed into media and seeded into PDL coated 384-well plates (Corning) at 25,000 (human/mouse THIK-1, TREK-1) or 30,000 (TWIK-2) cells/well (25 μl/well). CHO-Kv2.1 cells were seeded into non-PDL coated plates (Corning) at 5000 cells/well. Plated cells were incubated overnight at 37 °C, 5% CO2 in a humidified atmosphere. For Q-Patch assays, cells were cultured for 7 days prior to assay, dissociated, and diluted to 1–2.5 million/ml in EX-CELL ACF serum free media containing HEPES (25 mM; Life Technologies), penicillin/streptomycin (100 U/ml, 100 μg/ml; Life Technologies) and a trypsin inhibitor (0.04 mg/ml).
A fluorescence-based thallium influx assay (Molecular Devices potassium assay kit) was used to monitor channel activity. […] Using a fluorescent imaging plate reader (FLIPR) tetra plate reader, 15 μl thallium stimulus solution was added to the cell plate and the fluorescence signal recorded every second for 1 min (excitation: 470–495 nm, emission: 515–575 nm).

[2] = system: Adrenergic α1, Non-Selective; experiment: Promiscuity screening panel, radiometric binding; conditions: Rat
Protocol: (§1) C101248 was further profiled in a promiscuity screening panel, using radiometric binding assays, against a selection of 18 diverse targets at 10 μM (Supplementary Table 2).
(§2) Supplementary Table 2: Promiscuity screening panel data for C101248. Compound was screened at 10 µM, in duplicate, using radiometric binding assays

[3] = target: Adrenergic β2 (Homo sapiens, UniProt P07550); experiment: Promiscuity screening panel, radiometric binding; conditions: read-out: % inhibition at 10 µM (n=2)
Protocol: as §1, §2

[4] = target: Androgen (Testosterone) (Homo sapiens, UniProt P10275); experiment: Promiscuity screening panel, radiometric binding; conditions: read-out: % inhibition at 10 µM (n=2)
Protocol: as §1, §2

[5] = system: Calcium Channel L-Type, Benzothiazepine; experiment: Promiscuity screening panel, radiometric binding; conditions: Rat
Protocol: as §1, §2

[6] = target: Cannabinoid CB2 (Homo sapiens, UniProt P34972); experiment: Promiscuity screening panel, radiometric binding; conditions: read-out: % inhibition at 10 µM (n=2)
Protocol: as §1, §2

[7] = target: Dopamine D1 (Homo sapiens, UniProt P21728); experiment: Promiscuity screening panel, radiometric binding; conditions: read-out: % inhibition at 10 µM (n=2)
Protocol: as §1, §2

[8] = system: GABAA, Flunitrazepam, Central; experiment: Promiscuity screening panel, radiometric binding; conditions: Rat
Protocol: as §1, §2

[9] = target: Muscarinic M1 (Homo sapiens, UniProt P11229); experiment: Promiscuity screening panel, radiometric binding; conditions: read-out: % inhibition at 10 µM (n=2)
Protocol: as §1, §2

[10] = target: Opiate μ (OP3, MOP) (Homo sapiens, UniProt P35372); experiment: Promiscuity screening panel, radiometric binding; conditions: read-out: % inhibition at 10 µM (n=2)
Protocol: as §1, §2

[11] = system: Phosphodiesterase PDE3; experiment: Promiscuity screening panel, radiometric binding; conditions: Phosphodiesterase PDE3, Human
Protocol: as §1, §2

[12] = target: Serotonin (5-Hydroxytryptamine) 5-HT2B (Homo sapiens, UniProt P41595); experiment: Promiscuity screening panel, radiometric binding; conditions: read-out: % inhibition at 10 µM (n=2)
Protocol: as §1, §2

[13] = system: Sodium Channel, Site 2; experiment: Promiscuity screening panel, radiometric binding; conditions: Site 2, Rat
Protocol: as §1, §2

[14] = target: Transporter, Norepinephrine (NET) (Homo sapiens, UniProt P23975); experiment: Promiscuity screening panel, radiometric binding; conditions: read-out: % inhibition at 10 µM (n=2)
Protocol: as §1, §2

[15] = target: Transporter, Serotonin (5-Hydroxytryptamine) (SERT) (Homo sapiens, UniProt P31645); experiment: Promiscuity screening panel, radiometric binding; conditions: read-out: % inhibition at 10 µM (n=2)
Protocol: as §1, §2

Chain of Dopamine D1 (P21728 whole entry): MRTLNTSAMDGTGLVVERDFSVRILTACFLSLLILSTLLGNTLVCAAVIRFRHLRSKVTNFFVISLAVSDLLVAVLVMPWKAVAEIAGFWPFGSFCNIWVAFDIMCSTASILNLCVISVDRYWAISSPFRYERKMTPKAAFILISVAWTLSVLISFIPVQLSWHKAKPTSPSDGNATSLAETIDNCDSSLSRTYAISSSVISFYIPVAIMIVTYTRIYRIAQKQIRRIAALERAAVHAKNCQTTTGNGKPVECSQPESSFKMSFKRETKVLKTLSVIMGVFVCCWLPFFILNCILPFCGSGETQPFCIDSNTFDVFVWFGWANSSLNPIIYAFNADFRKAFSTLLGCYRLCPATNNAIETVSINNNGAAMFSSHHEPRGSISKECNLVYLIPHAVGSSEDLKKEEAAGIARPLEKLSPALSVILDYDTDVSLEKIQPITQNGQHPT
Chain of Cannabinoid CB2 (P34972 whole entry): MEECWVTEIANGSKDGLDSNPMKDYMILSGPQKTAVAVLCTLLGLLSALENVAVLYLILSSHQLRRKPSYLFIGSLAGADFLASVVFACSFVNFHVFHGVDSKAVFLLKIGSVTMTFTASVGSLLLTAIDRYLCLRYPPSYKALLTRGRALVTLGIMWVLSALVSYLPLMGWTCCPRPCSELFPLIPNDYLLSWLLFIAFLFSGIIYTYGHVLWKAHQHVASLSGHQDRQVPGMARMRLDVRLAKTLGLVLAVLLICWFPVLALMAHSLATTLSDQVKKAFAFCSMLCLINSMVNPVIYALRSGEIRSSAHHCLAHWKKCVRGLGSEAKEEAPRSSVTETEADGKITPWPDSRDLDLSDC
Chain of Transporter, Serotonin (5-Hydroxytryptamine) (SERT) (P31645 whole entry): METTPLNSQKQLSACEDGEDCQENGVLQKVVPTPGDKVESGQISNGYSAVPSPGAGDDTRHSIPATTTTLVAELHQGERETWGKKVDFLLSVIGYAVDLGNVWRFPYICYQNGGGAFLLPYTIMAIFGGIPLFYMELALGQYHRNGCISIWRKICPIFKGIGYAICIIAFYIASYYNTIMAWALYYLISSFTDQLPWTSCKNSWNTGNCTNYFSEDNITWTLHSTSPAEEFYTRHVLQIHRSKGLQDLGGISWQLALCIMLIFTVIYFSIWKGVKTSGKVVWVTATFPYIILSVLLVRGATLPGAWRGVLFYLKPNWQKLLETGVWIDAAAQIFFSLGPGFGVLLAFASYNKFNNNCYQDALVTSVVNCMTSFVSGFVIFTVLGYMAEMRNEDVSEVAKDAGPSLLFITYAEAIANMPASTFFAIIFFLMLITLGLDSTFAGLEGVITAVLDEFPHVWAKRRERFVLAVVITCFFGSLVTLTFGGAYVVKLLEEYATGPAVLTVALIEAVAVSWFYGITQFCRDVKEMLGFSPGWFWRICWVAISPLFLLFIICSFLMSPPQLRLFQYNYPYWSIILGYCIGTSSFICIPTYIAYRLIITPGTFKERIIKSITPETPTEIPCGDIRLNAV
Chain of Opiate μ (OP3, MOP) (P35372 whole entry): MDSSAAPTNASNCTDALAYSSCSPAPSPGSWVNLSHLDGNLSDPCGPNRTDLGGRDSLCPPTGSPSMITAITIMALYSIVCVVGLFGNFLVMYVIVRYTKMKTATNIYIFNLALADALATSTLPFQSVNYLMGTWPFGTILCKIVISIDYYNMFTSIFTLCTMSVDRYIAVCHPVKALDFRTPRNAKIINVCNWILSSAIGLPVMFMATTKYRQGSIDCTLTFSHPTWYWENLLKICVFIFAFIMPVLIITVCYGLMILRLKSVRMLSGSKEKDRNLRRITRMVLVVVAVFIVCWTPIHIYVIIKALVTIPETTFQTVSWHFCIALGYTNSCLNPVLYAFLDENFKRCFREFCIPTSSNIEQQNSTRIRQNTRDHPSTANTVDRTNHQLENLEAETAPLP
Chain of Muscarinic M1 (P11229 whole entry): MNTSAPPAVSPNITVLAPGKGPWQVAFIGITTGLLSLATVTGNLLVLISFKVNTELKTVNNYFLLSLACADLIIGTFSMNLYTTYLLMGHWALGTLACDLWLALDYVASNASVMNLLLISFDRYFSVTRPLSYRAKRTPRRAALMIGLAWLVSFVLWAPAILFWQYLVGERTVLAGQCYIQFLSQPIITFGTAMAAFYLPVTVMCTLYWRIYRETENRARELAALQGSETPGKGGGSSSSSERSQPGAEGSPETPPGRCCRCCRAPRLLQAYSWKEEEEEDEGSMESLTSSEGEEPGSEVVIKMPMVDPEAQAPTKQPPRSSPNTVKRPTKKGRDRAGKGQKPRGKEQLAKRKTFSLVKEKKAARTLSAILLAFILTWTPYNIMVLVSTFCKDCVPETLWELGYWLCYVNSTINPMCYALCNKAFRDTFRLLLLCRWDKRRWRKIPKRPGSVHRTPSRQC
Chain of Serotonin (5-Hydroxytryptamine) 5-HT2B (P41595 whole entry): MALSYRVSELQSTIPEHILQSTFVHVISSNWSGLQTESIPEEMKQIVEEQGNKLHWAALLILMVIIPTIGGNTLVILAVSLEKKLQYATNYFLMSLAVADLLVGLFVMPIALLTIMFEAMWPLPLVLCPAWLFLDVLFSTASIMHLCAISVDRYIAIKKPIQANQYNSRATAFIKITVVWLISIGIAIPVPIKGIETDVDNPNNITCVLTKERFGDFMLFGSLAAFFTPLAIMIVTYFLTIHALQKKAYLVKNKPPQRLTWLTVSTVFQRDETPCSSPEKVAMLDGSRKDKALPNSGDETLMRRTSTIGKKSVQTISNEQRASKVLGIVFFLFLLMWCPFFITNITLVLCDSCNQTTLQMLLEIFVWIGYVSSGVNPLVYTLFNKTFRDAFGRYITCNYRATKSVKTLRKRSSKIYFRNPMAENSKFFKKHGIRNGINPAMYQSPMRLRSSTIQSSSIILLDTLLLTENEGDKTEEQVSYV
Chain of Androgen (Testosterone) (P10275 whole entry): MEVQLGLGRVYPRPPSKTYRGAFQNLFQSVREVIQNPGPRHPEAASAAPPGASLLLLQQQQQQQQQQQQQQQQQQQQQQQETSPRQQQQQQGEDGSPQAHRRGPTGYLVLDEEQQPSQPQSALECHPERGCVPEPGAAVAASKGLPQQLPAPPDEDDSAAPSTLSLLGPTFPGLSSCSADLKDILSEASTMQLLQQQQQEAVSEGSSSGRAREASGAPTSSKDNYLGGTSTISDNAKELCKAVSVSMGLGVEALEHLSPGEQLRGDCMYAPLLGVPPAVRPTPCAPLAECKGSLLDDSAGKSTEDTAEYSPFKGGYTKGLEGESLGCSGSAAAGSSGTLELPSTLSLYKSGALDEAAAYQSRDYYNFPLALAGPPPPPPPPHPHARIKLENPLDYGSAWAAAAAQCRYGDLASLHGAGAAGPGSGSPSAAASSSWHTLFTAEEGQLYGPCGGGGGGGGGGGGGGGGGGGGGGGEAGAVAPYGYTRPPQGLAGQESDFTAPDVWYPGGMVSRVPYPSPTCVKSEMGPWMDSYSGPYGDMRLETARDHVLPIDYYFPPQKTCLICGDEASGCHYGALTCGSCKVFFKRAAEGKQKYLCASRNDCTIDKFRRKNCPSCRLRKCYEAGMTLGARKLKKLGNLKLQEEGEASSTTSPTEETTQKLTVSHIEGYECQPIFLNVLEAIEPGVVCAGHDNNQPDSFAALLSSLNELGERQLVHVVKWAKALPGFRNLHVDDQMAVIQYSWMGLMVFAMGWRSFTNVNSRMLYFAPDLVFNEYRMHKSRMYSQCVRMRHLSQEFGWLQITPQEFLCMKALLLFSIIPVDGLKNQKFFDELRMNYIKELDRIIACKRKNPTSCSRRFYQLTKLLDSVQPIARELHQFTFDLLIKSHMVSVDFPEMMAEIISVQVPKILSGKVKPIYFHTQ
Chain of Adrenergic β2 (P07550 whole entry): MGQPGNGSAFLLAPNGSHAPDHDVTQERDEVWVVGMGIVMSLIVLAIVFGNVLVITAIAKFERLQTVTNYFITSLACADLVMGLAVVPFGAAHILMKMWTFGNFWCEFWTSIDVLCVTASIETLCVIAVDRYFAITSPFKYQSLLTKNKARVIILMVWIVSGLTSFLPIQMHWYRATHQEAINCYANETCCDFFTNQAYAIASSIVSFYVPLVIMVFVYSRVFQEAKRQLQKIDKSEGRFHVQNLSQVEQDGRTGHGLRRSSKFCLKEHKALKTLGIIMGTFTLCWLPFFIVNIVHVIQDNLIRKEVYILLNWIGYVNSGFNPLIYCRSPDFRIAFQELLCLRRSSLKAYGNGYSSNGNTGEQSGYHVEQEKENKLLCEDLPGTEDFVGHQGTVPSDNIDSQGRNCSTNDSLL
Chain of Transporter, Norepinephrine (NET) (P23975 whole entry): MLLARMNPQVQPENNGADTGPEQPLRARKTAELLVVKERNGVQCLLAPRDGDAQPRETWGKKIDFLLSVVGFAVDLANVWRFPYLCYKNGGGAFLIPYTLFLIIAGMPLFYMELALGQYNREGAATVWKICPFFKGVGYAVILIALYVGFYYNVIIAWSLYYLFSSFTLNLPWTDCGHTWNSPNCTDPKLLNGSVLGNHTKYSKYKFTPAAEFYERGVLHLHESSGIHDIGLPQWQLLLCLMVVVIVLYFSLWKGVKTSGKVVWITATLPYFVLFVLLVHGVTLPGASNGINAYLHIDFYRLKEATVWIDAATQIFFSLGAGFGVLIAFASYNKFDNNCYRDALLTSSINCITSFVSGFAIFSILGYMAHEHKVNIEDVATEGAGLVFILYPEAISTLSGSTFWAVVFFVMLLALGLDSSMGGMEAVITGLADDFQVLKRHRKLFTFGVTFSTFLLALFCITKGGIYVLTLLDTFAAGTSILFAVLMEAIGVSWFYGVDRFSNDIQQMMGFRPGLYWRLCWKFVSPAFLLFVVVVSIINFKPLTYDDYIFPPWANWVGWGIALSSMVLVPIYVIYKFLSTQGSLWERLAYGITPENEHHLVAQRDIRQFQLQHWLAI

## Nc1nonc1-c1nc2ccccc2n1Cc1ccncc1 [C101248]
[1]; HEK-mTHIK-1, normalised to TPA controls, read-out: IC50, mouse THIK-1 (thallium influx)
  IC50: 49 nM
[1]; HEK-mTHIK-1, thallium influx
  maximum inhibition: 100%
[1]; mouse THIK-1, read-out: IC50, inhibition of mouse THIK-1 (abstract)
  IC50: ~50 nM
[2]
  % inhibition at 10 µM (n=2): 12%
[3]
  inhibition at 10 µM: 15%
[4]
  inhibition at 10 µM: 6%
[5]
  % inhibition at 10 µM (n=2): 3%
[6]
  inhibition at 10 µM: 0%
[7]
  inhibition at 10 µM: -1%
[8]
  % inhibition at 10 µM (n=2): -9%
[9]
  inhibition at 10 µM: -3%
[10]
  inhibition at 10 µM: -9%
[11]
  % inhibition at 10 µM (n=2): 1%
[12]
  inhibition at 10 µM: 24%
[13]
  % inhibition at 10 µM (n=2): 2%
[14]
  inhibition at 10 µM: 23%
[15]
  inhibition at 10 µM: -7%
